Experimental data reported in the supplement of paper PMC10307832.

Tests used:
Assay in all cases: relative viability (nuclei count vs DMSO), 5 days (fraction); higher = more cells survive
Salubrinal + Pemetrexed = compound: O=C(/C=C/c1ccccc1)NC(NC(=S)Nc1cccc2cccnc12)C(Cl)(Cl)Cl [Salubrinal] + Nc1nc2[nH]cc(CCc3ccc(C(=O)N[C@@H](CCC(=O)O)C(=O)O)cc3)c2c(=O)[nH]1 [Pemetrexed] (partner 0.2 µM)
Outline: (§1)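 Lung cancer cell lines were pin-tool dosed in 1536-well plates on the day after seeding, with either a lone drug or a fixed anchor-drug dose plus five library-drug doses (not always all listed) in √10 steps. Nuclei were counted on 4× images after 5 days. Relative viability is the ratio of treated-well to vehicle-well nuclei counts, with each value a median of duplicate plates.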

Salubrinal + Olaparib = compound: O=C(/C=C/c1ccccc1)NC(NC(=S)Nc1cccc2cccnc12)C(Cl)(Cl)Cl [Salubrinal] + O=C(c1cc(Cc2n[nH]c(=O)c3ccccc23)ccc1F)N1CCN(C(=O)C2CC2)CC1 [Olaparib] (partner 8 µM)
Outline: as §1

[1] = compound: Cc1ccc2nc(NCCN)c3ncc(C)n3c2c1 + C[C@]1(O)C[C@@H](c2nc(-c3ccc4ccc(-c5ccccc5)nc4c3)c3c(N)nccn32)C1 [Linsitinib] (partner 1 µM)
Outline: as §1

Salubrinal + Crizotinib = compound: O=C(/C=C/c1ccccc1)NC(NC(=S)Nc1cccc2cccnc12)C(Cl)(Cl)Cl [Salubrinal] + C[C@@H](Oc1cc(-c2cnn(C3CCNCC3)c2)cnc1N)c1c(Cl)ccc(F)c1Cl [Crizotinib] (partner 1 µM)
Outline: as §1

Row | Cell Line | relative viability (Salubrinal + Pemetrexed; first compound 0.08 µM) | relative viability (Salubrinal + Pemetrexed; first compound 0.253 µM) | relative viability (Salubrinal + Pemetrexed; first compound 0.8 µM) | relative viability (Salubrinal + Pemetrexed; first compound 2.53 µM) | relative viability (Salubrinal + Pemetrexed; first compound 8 µM) | relative viability (Salubrinal + Olaparib; first compound 0.08 µM) | relative viability (Salubrinal + Olaparib; first compound 0.253 µM) | relative viability (Salubrinal + Olaparib; first compound 0.8 µM) | relative viability (Salubrinal + Olaparib; first compound 2.53 µM) | relative viability (Salubrinal + Olaparib; first compound 8 µM) | relative viability ([1]; first compound 0.04 µM) | relative viability ([1]; first compound 0.1265 µM) | relative viability ([1]; first compound 0.4 µM) | relative viability ([1]; first compound 1.265 µM) | relative viability ([1]; first compound 4 µM) | relative viability (Salubrinal + Crizotinib; first compound 0.08 µM) | relative viability (Salubrinal + Crizotinib; first compound 0.253 µM) | relative viability (Salubrinal + Crizotinib; first compound 0.8 µM) | relative viability (Salubrinal + Crizotinib; first compound 2.53 µM) | relative viability (Salubrinal + Crizotinib; first compound 8 µM)
1 | SW 1573 | 0.952 | 0.586 | 0.941 | 0.69 | 0.742 | 0.607 | 0.488 | 0.542 | 0.43 | 0.522 | 0.928 | 0.824 | 0.883 | 0.985 | 0.821 | 0.653 | 0.747 | 0.866 | 0.781 | 0.898
2 | A-427 | 0.957 | 0.964 | 1.17 | 1.03 | 1.1 | 0.751 | 0.7 | 0.793 | 0.682 | 0.744 | 0.922 | 1.01 | 1.08 | 1.09 | 1.19 | 0.896 | 0.899 | 1.05 | 0.85 | 0.895
3 | NCI-H2347 | 0.43 | 0.43 | 0.423 | 0.452 | 0.529 | 0.595 | 0.657 | 0.609 | 0.613 | 0.584 | 0.963 | 1 | 0.944 | 0.829 | 0.893 | 0.709 | 0.709 | 0.772 | 0.76 | 0.719
4 | NCI-H1355 | 1.11 | 1.02 | 1.1 | 1.03 | 1.09 | 0.775 | 0.903 | 0.75 | 0.766 | 0.643 | 0.811 | 0.825 | 0.814 | 0.771 | 0.719 | 1.18 | 1.12 | 1.12 | 1.12 | 1.03
5 | NCI-H1944 | 0.607 | 0.669 | 0.797 | 0.752 | 0.789 | 0.435 | 0.478 | 0.461 | 0.431 | 0.417 | 1.06 | 1.3 | 1.21 | 1.23 | 1.19 | 1.22 | 1.12 | 1.29 | 1.08 | 1.21
6 | PC-3 [JPC-3] | 0.879 | 0.919 | 1.49 | 1.02 | 1.04 | 1.16 | 0.567 | 1.23 | 1.1 | 1.09 | 0.962 | 0.941 | 0.924 | 0.948 | 0.947 | 1.08 | 0.679 | 1.11 | 0.976 | 0.997
7 | NCI-H2228 | 0.334 |  | 0.404 | 0.326 | 0.277 | 0.691 |  | 0.969 | 0.555 | 0.385 | 0.642 | 0.443 | 0.587 | 0.751 | 0.44 | 0.496 | 0.446 | 0.632 | 0.353 | 0.362
8 | HOP-62 | 0.244 | 0.267 | 0.317 | 0.315 | 0.331 | 0.318 | 1.34 | 0.943 | 0.456 | 0.386 | 1.11 | 0.912 | 1.11 | 0.922 | 0.89 | 1.04 | 0.965 | 1.21 | 0.914 | 0.26
